This passage reports IC50 results from patent publication US8642629B2, “Naphthylacetic acids” (Hoffmann-La Roche Inc., priority 2008, dated 2014).

The target of the assay is T1, human CRTH2 (Homo sapiens, UniProt Q9Y5Y4).
T1 construct: expressed in transfected cells; host or cells: CHO-K1
T1 sequence (Q9Y5Y4 1-395): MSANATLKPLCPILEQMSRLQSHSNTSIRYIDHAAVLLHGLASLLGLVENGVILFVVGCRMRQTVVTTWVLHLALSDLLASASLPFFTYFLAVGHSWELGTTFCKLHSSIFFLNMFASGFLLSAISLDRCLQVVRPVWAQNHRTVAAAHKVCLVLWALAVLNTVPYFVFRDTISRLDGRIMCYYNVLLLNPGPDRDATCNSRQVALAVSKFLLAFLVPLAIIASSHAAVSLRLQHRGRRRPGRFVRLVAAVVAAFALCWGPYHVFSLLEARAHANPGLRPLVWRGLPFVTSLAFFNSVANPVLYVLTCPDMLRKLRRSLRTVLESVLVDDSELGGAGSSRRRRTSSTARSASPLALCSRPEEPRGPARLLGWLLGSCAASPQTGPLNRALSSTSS
Description: Human CRTH2 Receptor Binding Assay (whole cell, [3H]ramatroban competition). As to conditions: CHO-K1 cells expressing human CRTH2 and G-alpha16; 20 nM [3H]ramatroban; 1 hour, room temperature. The source says:
A whole cell receptor binding assay using [^3H]ramatroban as the competing radioactive ligand was employed to evaluate the compound binding activity to human CRTH2. The radioactive ligand [^3H]ramatroban was synthesized according to Sugimoto et. al. (Eur. J. Pharmacol. 524, 30-37, 2005) to a specific activity of 42 Ci/mmol.
A cell line stably expressing human CRTH2 was established by transfecting CHO-K1 cells with two mammalian expression vectors that harbored human CRTH2 and G-alpha16 cDNAs, respectively, using FuGene® 6 transfection reagent (from Roche). Stable clones expressing CRTH2 were selected by staining each clone with BM16 (BD Pharmingen™ from BD Biosciences, a division of Becton, Dickinson and Company), which is a rat monoclonal antibody to human CRTH2. The cells were maintained as monolayer cultures in Ham's F-12 medium containing 10% fetal bovine serum, 100 units/mL penicillin, 100 μg/mL streptomycin, 2 mM glutamine, 0.5 mg/mL G418 (geneticin) for CRTH2, and 0.2 mg/mL hygromycin-B (for G-alpha 16). For whole cell receptor binding assay, the monolayer cells were rinsed once with PBS (phosphate buffered saline), dissociated using ethylenediaminetetraacetate (Versene™ EDTA from Lonza Inc.), and suspended in PBS containing 10 mM MgCl2 and 0.06% BSA (bovine serum albumin) at 1.5×10^6 cells/mL.
The binding reactions (0.2 mL) were performed in 96-well plates at room temperature in PBS containing 1.5×10^5 cells, 10 mM MgCl2, 0.06% BSA, 20 nM [^3H]ramatroban, and test compound at various concentrations. After 1 hour of binding reactions, the cells were harvested on GF™/B filter microplates (microtiter plates with embedded glass fiber from PerkinElmer, Inc.) and washed 5 times with PBS using a Filtermate™ Harvester (a cell harvester that harvests and washes cells from microplates from PerkinElmer, Inc.). The radioactivities bound to the cells were determined using a microplate scintillation counter (TopCount® NXT, from PerkinElmer, Inc.) after adding 50 μL of Microscint™ 20 scintillation fluid (from PerkinElmer, Inc.) to each well of the filter plates. The radioactivity from non-specific binding was determined by replacing compound with 10 μM of 15(R)-15-methyl PGD2 (from Cayman Chemical Company) in the reaction mixtures. The radioactivity bound to the cells in the absence of compound (total binding) was determined by replacing compound with 0.25% of DMSO (dimethyl sulfoxide) in the reaction mixture. Specific binding data were obtained by subtracting the radioactivity of non-specific binding from each binding data.
The IC50 value is defined as the concentration of the tested compound that is required for 50% inhibition of total specific binding. In order to calculate the IC50 value, the percent inhibition data were determined for 7 concentrations for each compound. The percent inhibition for a compound at each concentration was calculated according to the following formula, [1−(specific binding in the presence of compound)/(total specific binding)]×100. The IC50 value was then obtained by fitting the percent inhibition data to a sigmoidal dose-response (4 parameter logistic) model in the XLfit® software Excel add-in program [from ID Business Solutions Ltd., model 205, where F(x)=(A+(B−A)/(1+((C/x)^D)))].
As to `CCS(=O)(=O)c1ccc(Oc2c(C)c(CC(=O)O)cc3ccc(F)cc23)cc1` [Example 2-1, [4-(4-ethanesulfonyl-phenoxy)-6-fluoro-3-methyl-naphthalen-2-yl]-acetic acid], the IC50 (usually the concentration at which inhibition is half-maximal) turned out to be 3.2 nM.

As for `Cc1c(CC(=O)O)cc2ccc(F)cc2c1Oc1ccc(S(C)(=O)=O)cn1` [Example 2-32, [6-fluoro-4-(5-methanesulfonyl-pyridin-2-yloxy)-3-methyl-naphthalen-2-yl]-acetic acid], the IC50 came to 0.9 nM.

As to `Cc1c(CC(=O)O)cc2ccc(F)cc2c1Oc1ccc(S(=O)(=O)N2CCOCC2)cc1` [Example 2-40, {6-fluoro-3-methyl-4-[4-(morpholine-4-sulfonyl)-phenoxy]-naphthalen-2-yl}-acetic acid], the half-inhibitory concentration (IC50) was found to be 6.3 nM.

`Cc1c(CC(=O)O)cc2ccc(F)cc2c1Oc1ccc(S(C)(=O)=O)c(F)c1` [Example 2-16, [6-fluoro-4-(3-fluoro-4-methanesulfonyl-phenoxy)-3-methyl-naphthalen-2-yl]-acetic acid] returned an IC50 of 3.4 nM.

With `CCS(=O)(=O)c1ccc(Oc2cc(CC(=O)O)cc3cccc(F)c23)cc1` [Example 1-22, [4-(4-Ethanesulfonyl-phenoxy)-5-fluoro-naphthalen-2-yl]-acetic acid], the 50% inhibitory concentration (IC50) was 5.4 nM.

For `CCS(=O)(=O)c1ccc(Oc2cc(CC(=O)O)cc3ccc(OC)cc23)nc1` [Example 1-21, [4-(5-Ethanesulfonyl-pyridin-2-yloxy)-6-methoxy-naphthalen-2-yl]-acetic acid], the IC50 was 4.7 nM.

For the molecule `CCS(=O)(=O)c1ccc(Oc2cc(CC(=O)O)cc3ccc(S(C)(=O)=O)cc23)cc1` [Example 16-1, [4-(4-Ethanesulfonyl-phenoxy)-6-methanesulfonyl-naphthalen-2-yl]-acetic acid], the IC50 is 91.5 nM.

In turn, `CCS(=O)(=O)c1ccc(Oc2cc(CC(=O)O)cc3cc(F)ccc23)cc1` [Example 1-20, [4-(4-Ethanesulfonyl-phenoxy)-7-fluoro-naphthalen-2-yl]-acetic acid] registered an IC50 of 18.1 nM.

`Cc1cc(S(C)(=O)=O)ccc1Oc1c(C)c(CC(=O)O)cc2ccc(F)cc12` [Example 2-3, [6-fluoro-4-(4-methanesulfonyl-2-methyl-phenoxy)-3-methyl-naphthalen-2-yl]-acetic acid] registered an IC50 of 7.5 nM.

For the molecule `CCS(=O)(=O)c1cc(F)c(Oc2c(C)c(CC(=O)O)cc3ccc(F)cc23)cc1Cl` [Example 2-24, [4-(5-chloro-4-ethanesulfonyl-2-fluoro-phenoxy)-6-fluoro-3-methyl-naphthalen-2-yl]-acetic acid], the IC50 was 8.2 nM.

In turn, `Cc1c(CC(=O)O)cc2ccc(F)cc2c1Oc1ccc(S(=O)(=O)C2CC2)cc1` [Example 2-5, [4-(4-cyclopropanesulfonyl-phenoxy)-6-fluoro-3-methyl-naphthalen-2-yl]-acetic acid] had an IC50 of 3.5 nM.

For `Cc1c(CC(=O)O)cc2ccc(F)cc2c1Oc1ccc(S(=O)(=O)C2CCCC2)cc1` [Example 2-26, [4-(4-cyclopentanesulfonyl-phenoxy)-6-fluoro-3-methyl-naphthalen-2-yl]-acetic acid], the IC50 worked out at 2.3 nM.

The molecule `Cc1c(CC(=O)O)cc2ccc(F)cc2c1Oc1ccc(S(C)(=O)=O)cc1F` [Example 2-12, [6-fluoro-4-(2-fluoro-4-methanesulfonyl-phenoxy)-3-methyl-naphthalen-2-yl]-acetic acid] had an IC50 of 1.8 nM.

In the case of `CCS(=O)(=O)c1ccc(Oc2c(C)c(CC(=O)O)cc3ccc(F)cc23)nc1` [Example 2-33, [4-(5-ethanesulfonyl-pyridin-2-yloxy)-6-fluoro-3-methyl-naphthalen-2-yl]-acetic acid], the IC50 came to 2.7 nM.

The molecule `Cc1c(CC(=O)O)cc2ccc(F)cc2c1Oc1ccc(C#N)cc1` [Example 2-44, [4-(4-cyano-phenoxy)-6-fluoro-3-methyl-naphthalen-2-yl]-acetic acid] registered an IC50 of 10 nM.
